These are literature values, as cited in publication PMC11360046 (ACS Omega, 2024).

The data set has as its system BRD4 BD2. The conditions noted are these: read-out: IC50 BRD4 BD2; I-58.

`CN1CCC(Nc2cccc(CN3c4ccccc4C=C4c5c(cccc53)C(=O)N4C)c2)CC1` [Compound I-58, 1-methyl-6-(3-((1-methylpiperidin-4-yl)amino)benzyl)-1,6-dihydro-2H-benzo[6,7]azepino[4,3,2-cd]isoindol-2-one]: the half-maximal inhibitory concentration (IC50) (commonly the concentration that gives 50% inhibition) was 1.88 nM.
